US8173788B2, “Peptide having ability to activate cancer-related gene” (priority 2005, dated 2012)

System: human normal peripheral blood monocyte
Assay: Influence of the artificially synthesized peptide on normal cell genes: coculture 7 hr, DNA chip system (Clontech), about 55000 human genes (Table 4)
Format: cell-based
Conditions: Suppressed Gene, Immune System Gene
Experimental: (a) The peptide obtained in Example 3 was added to a human normal peripheral blood monocyte culture system (10 to 100 μg peptide/1×10^6 to 1×10^7 monocytes), and they were cocultured for 7 hr. Then, mRNA was extracted from the monocytes and was applied to analysis for up-regulation and down-regulation in respect to about 55000 human genes by using DNA chip system (Clontech).

[1] = Gene No. 12812, ovarian carcinoma immunoreactive antigen (OCIA)
[2] = Gene No. 14949, programmed cell death 10 (PDCD10), transcript variant 1
[3] = Gene No. 15907, intercellular adhesion molecule 2 (ICAM2)
[4] = Gene No. 15994, beta-2-microglobulin (B2M)
[5] = Gene No. 16478, tumor necrosis factor (ligand) superfamily, member 12 (TNFSF12), transcript variant 1, mRNA
[6] = Gene No. 16756, major histocompatibility complex, class I, E (HLA-E)
[7] = Gene No. 17177, tumor necrosis factor superfamily, member 5-induced protein 1 (TNFSF5IP1)
[8] = Gene No. 18139, major histocompatibility complex, class II, DQ alpha 1 (HLA-DQA1)
[9] = Gene No. 18884, (clone 38-1) MHC class I mRNA fragment.
[10] = Gene No. 20551, IL2-inducible T-cell kinase (ITK)
[11] = Gene No. 20881, natural killer cell transcript 4 (NK4)
[12] = Gene No. 21487, programmed cell death 2 (PDCD2), transcript variant 1
[13] = Gene No. 22326, immune associated nucleotide 2 (hIAN2)
[14] = Gene No. 22789, CASP8 and FADD-like apoptosis regulator (CFLAR)
[15] = Gene No. 22868, lymphocyte cytosolic protein 2 (SH2 domain containing leukocyte protein of 76 kDa) (LCP2)
[16] = Gene No. 22890, NK inhibitory receptor precursor (NKIR)
[17] = Gene No. 23827, major histocompatibility complex, class II, DM alpha (HLA-DMA)
[18] = Gene No. 24440, THYMUS cDNA clone CS0CAP007YL06 5-PRIME
[19] = Gene No. 24969, CD69 antigen (p60, early T-cell activation antigen) (CD69)
[20] = Gene No. 34736, adhesion molecule AMICA (AMICA)
[21] = Gene No. 37068, immediate early response 2 (IER2)
[22] = Gene No. 37445, mal, T-cell differentiation protein (MAL), transcript variant d
[23] = Gene No. 37834, proteasome (prosome, macropain) 26S subunit, non-ATPase, 1 (PSMD1)
[24] = Gene No. 38103, tumor necrosis factor receptor superfamily, member 7 (TNFRSF7)
[25] = Gene No. 38879, interferon stimulated gene 20 kDa (ISG20)
[26] = Gene No. 39926, thymosin-like 6 (TMSL6)
[27] = Gene No. 39991, lymphotoxin beta (TNF superfamily, member 3) (LTB), transcript variant 2
[28] = Gene No. 40727, linker for activation of T cells (LAT)
[29] = Gene No. 41726, apoptosis-associated speck-like protein containing a CARD (ASC), transcript variant 1
[30] = Gene No. 41803, programmed cell death 2 (PDCD2), transcript variant 2
[31] = Gene No. 41817, major histocompatibility complex, class I, F (HLA-F)
[32] = Gene No. 42474, programmed cell death 6 (PDCD6)
[33] = Gene No. 42573, T-cell activation protein (PGR1)
[34] = Gene No. 42614, killer cell lectin-like receptor subfamily K, member 1 (KLRK1)
[35] = Gene No. 42661, proteasome (prosome, macropain) subunit, beta type, 9 (large multifunctional protease 2) (PSMB9), transcript variant 1
[36] = Gene No. 42680, proteasome (prosome, macropain) 26S subunit, ATPase, 4 (PSMC4), transcript variant 1
[37] = Gene No. 42813, granzyme A (granzyme 1, cytotoxic T-lymphocyte-associated serine esterase 3) (GZMA)
[38] = Gene No. 43032, interferon, gamma-inducible protein 16 (IFI16)
[39] = Gene No. 45767, HLA-B associated transcript 1 (BAT1), transcript variant 1
[40] = Gene No. 46186, cell death-regulatory protein GRIM19 (GRIM19)
[41] = Gene No. 47689, killer cell lectin-like receptor subfamily B, member 1 (KLRB1)
[42] = Gene No. 47973, CD8 antigen, beta polypeptide 1 (p37) (CD8B1), transcript variant 5
[43] = Gene No. 49170, interferon gamma receptor 2 (interferon gamma transducer 1) (IFNGR2)
[44] = Gene No. 49586, interleukin-1 receptor-associated kinase 4 (IRAK4)
[45] = Gene No. 49622, intercellular adhesion molecule 3 (ICAM3)
[46] = Gene No. 51004, tumor necrosis factor (ligand) superfamily, member 10 (TNFSF10)
[47] = Gene No. 52071, interferon (alpha, beta and omega) receptor 1 (IFNAR1)
[48] = Gene No. 52342, apoptosis-related protein PNAS-1 (FLJ39616)
[49] = Gene No. 52539, major histocompatibility complex, class II, DR alpha (HLA-DRA)
[50] = Gene No. 53172, transforming growth factor, beta 1 (Camurati-Engelmann disease) (TGFB1)

Substance: the Peptide (QPQFGRRMESK; Human squamous cell carcinoma)
- Suppression Ratio (Gene No. 11651, implantation-associated protein (DKFZp564K142)): 89.16
- Expression Amount after Treatment with the Peptide [1]: 24.53
- Suppression Ratio [1]: 47.97
- Expression Amount after Treatment with the Peptide [2]: 25.27
- Suppression Ratio [2]: 40.37
- Expression Amount after Treatment with the Peptide [3]: 6.364
- Suppression Ratio [3]: 143.4
- Expression Amount after Treatment with the Peptide [4]: 239.5
- Suppression Ratio [4]: 47.59
- Expression Amount after Treatment with the Peptide [5]: 6.018
- Suppression Ratio [5]: 110.2
- Expression Amount after Treatment with the Peptide [6]: 2.806
- Suppression Ratio [6]: 140.8
- Expression Amount after Treatment with the Peptide [7]: 26.16
- Suppression Ratio [7]: 39.51
- Expression Amount after Treatment with the Peptide [8]: 33.12
- Suppression Ratio [8]: 80.32
- Expression Amount after Treatment with the Peptide [9]: 3.387
- Suppression Ratio [9]: 100.2
- Expression Amount after Treatment with the Peptide [10]: 22.93
- Suppression Ratio [10]: 122.6
- Expression Amount after Treatment with the Peptide [11]: 38.17
- Suppression Ratio [11]: 172.9
- Expression Amount after Treatment with the Peptide [12]: 9.909
- Suppression Ratio [12]: 39.12
- Expression Amount after Treatment with the Peptide [13]: 9.743
- Suppression Ratio [13]: 113.2
- Expression Amount after Treatment with the Peptide [14]: 9.725
- Suppression Ratio [14]: 75.25
- Expression Amount after Treatment with the Peptide [15]: 6.525
- Suppression Ratio [15]: 82.73
- Expression Amount after Treatment with the Peptide [16]: 9.902
- Suppression Ratio [16]: 112.4
- Expression Amount after Treatment with the Peptide [17]: 29.78
- Suppression Ratio [17]: 80.72
- Expression Amount after Treatment with the Peptide [18]: 0.2348
- Suppression Ratio [18]: 59.63
- Expression Amount after Treatment with the Peptide [19]: 25.71
- Suppression Ratio [19]: 95.14
- Expression Amount after Treatment with the Peptide [20]: 29.08
- Suppression Ratio [20]: 136.7
- Expression Amount after Treatment with the Peptide [21]: 57.38
- Suppression Ratio [21]: 121.3
- Expression Amount after Treatment with the Peptide [22]: 14.875
- Suppression Ratio [22]: 112.4
- Expression Amount after Treatment with the Peptide [23]: 14.11
- Suppression Ratio [23]: 38.69
- Expression Amount after Treatment with the Peptide [24]: 5.778
- Suppression Ratio [24]: 121.8
- Expression Amount after Treatment with the Peptide [25]: 31.94
- Suppression Ratio [25]: 91.84
- Expression Amount after Treatment with the Peptide [26]: 317.7
- Suppression Ratio [26]: 54.8
- Expression Amount after Treatment with the Peptide [27]: 17.77
- Suppression Ratio [27]: 135.9
- Expression Amount after Treatment with the Peptide [28]: 28.17
- Suppression Ratio [28]: 42.75
- Expression Amount after Treatment with the Peptide [29]: 33.51
- Suppression Ratio [29]: 134.7
- Expression Amount after Treatment with the Peptide [30]: 0.82
- Suppression Ratio [30]: 108.8
- Expression Amount after Treatment with the Peptide [31]: 98.43
- Suppression Ratio [31]: 107.9
- Expression Amount after Treatment with the Peptide [32]: 17.04
- Suppression Ratio [32]: 68.35
- Expression Amount after Treatment with the Peptide [33]: 15.75
- Suppression Ratio [33]: 60.53
- Expression Amount after Treatment with the Peptide [34]: 4.848
- Suppression Ratio [34]: 129.2
- Expression Amount after Treatment with the Peptide [35]: 39.14
- Suppression Ratio [35]: 38.48
- Expression Amount after Treatment with the Peptide [36]: 42.03
- Suppression Ratio [36]: 38.46
- Expression Amount after Treatment with the Peptide [37]: 38.51
- Suppression Ratio [37]: 115.5
- Expression Amount after Treatment with the Peptide [38]: 4.446
- Suppression Ratio [38]: 116.8
- Expression Amount after Treatment with the Peptide [39]: 18.125
- Suppression Ratio [39]: 130.2
- Expression Amount after Treatment with the Peptide [40]: 25.55
- Suppression Ratio [40]: 55.07
- Expression Amount after Treatment with the Peptide [41]: 72.08
- Suppression Ratio [41]: 52.77
- Expression Amount after Treatment with the Peptide [42]: 9.639
- Suppression Ratio [42]: 153.6
- Expression Amount after Treatment with the Peptide [43]: 10.09
- Suppression Ratio [43]: 70.7
- Expression Amount after Treatment with the Peptide [44]: 2.716
- Suppression Ratio [44]: 91.49
- Expression Amount after Treatment with the Peptide [45]: 39.68
- Suppression Ratio [45]: 86.23
- Expression Amount after Treatment with the Peptide [46]: 8.725
- Suppression Ratio [46]: 39.65
- Expression Amount after Treatment with the Peptide [47]: 9.429
- Suppression Ratio [47]: 44.09
- Expression Amount after Treatment with the Peptide [48]: 18.72
- Suppression Ratio [48]: 64.11
- Expression Amount after Treatment with the Peptide [49]: 158.7
- Suppression Ratio [49]: 109.3
- Expression Amount after Treatment with the Peptide [50]: 6.56
- Suppression Ratio [50]: 88.02
